Assay [1] has as its target T1, rat TAAR1 (Rattus norvegicus, UniProt Q923Y9).
T1 construct: expressed in transfected cells; host or cells: HEK293 (ATCC # CRL-1573), stably transfected with pIRESneo2 expression plasmid
As to the kind of experiment: TAAR1 radioligand binding with [3H]-rac-2-(1,2,3,4-tetrahydro-1-naphthyl)-2-imidazoline, membranes of stably transfected HEK293 cells. As to conditions: second value of the cell, read-out: Ki (μM) mouse/rat: rat. Here is the method: (§1) For the construction of expression plasmids the coding sequences of human, rat and mouse TAAR 1 were amplified from genomic DNA essentially as described by Lindemann et al.. The Expand High Fidelity PCR System (Roche Diagnostics) was used with 1.5 mM Mg^2+ and purified PCR products were cloned into pCR2.1-TOPO cloning vector (Invitrogen) following the instructions of the manufacturer. PCR products were subcloned into the pIRESneo2 vector (BD Clontech, Palo Alto, Calif.), and expression vectors were sequence verified before introduction in cell lines.
(§2) HEK293 cells (ATCC # CRL-1573) were cultured essentially as described by Lindemann et al. (2005). For the generation of stably transfected cell lines HEK293 cells were transfected with the pIRESneo2 expression plasmids containing the TAAR coding sequences (described above) with Lipofectamine 2000 (Invitrogen) according to the instructions of the manufacturer, and 24 hrs post transfection the culture medium was supplemented with 1 mg/ml G418 (Sigma, Buchs, Switzerland). After a culture period of about 10 d clones were isolated, expanded and tested for responsiveness to trace amines (all compounds purchased from Sigma) with the cAMP Biotrak Enzyme immunoassay (EIA) System (Amersham) following the non-acetylation EIA procedure provided by the manufacturer.
(§3) Cells at confluence were rinsed with ice-cold phosphate buffered saline without Ca^2+ and Mg^2+ containing 10 mM EDTA and pelleted by centrifugation at 1000 rpm for 5 min at 4° C. The pellet was then washed twice with ice-cold phosphate buffered saline and the cell pellet was frozen immediately by immersion in liquid nitrogen and stored until use at −80° C. The cell pellet was then suspended in 20 ml HEPES-NaOH (20 mM), pH 7.4 containing 10 mM EDTA, and homogenized with a Polytron (PT 3000, Kinematica) at 10,000 rpm for 10 s. The homogenate was centrifuged at 48,000×g for 30 min at 4° C. and the pellet resuspended in 20 ml HEPES-NaOH (20 mM), pH 7.4 containing 0.1 mM EDTA (buffer A), and homogenized with a Polytron at 10,000 rpm for 10 s. The homogenate was then centrifuged at 48,000×g for 30 min at 4° C. and the pellet resuspended in 20 ml buffer A, and homogenized with a Polytron at 10,000 rpm for 10 s. Protein concentration was determined by the method of Pierce (Rockford, Ill.). The homogenate was then centrifuged at 48,000×g for 10 min at 4° C., resuspended in HEPES-NaOH (20 mM), pH 7.0 including MgCl2 (10 mM) and […] homogenized with a Polytron at 10,000 rpm for 10 s.
(§4) The binding assay was performed at 4° C. in a final volume of 1 ml, and with an incubation time of 30 min. The radioligand [^3H]-rac-2-(1,2,3,4-tetrahydro-1-naphthyl)-2-imidazoline was used at a concentration equal to the calculated Kd value of 60 nM to give a bound at around 0.1% of the total added radioligand concentration, and a specific binding which represented approximately 70-80% of the total binding. Non-specific binding was defined as the amount of [^3H]-rac-2-(1,2,3,4-tetrahydro-1-naphthyl)-2-imidazoline bound in the presence of the appropriate unlabelled ligand (10 μM). Competing ligands were tested in a wide range of concentrations (10 pM-30 μM). […] Each experiment was performed in duplicate. All incubations were terminated by rapid filtration through UniFilter-96 plates (Packard Instrument Company) and glass filter GF/C, pre-soaked for at least 2 h in polyethylenimine 0.3%, and using a Filtermate 96 Cell Harvester (Packard Instrument Company). The tubes and filters were then washed 3 times with 1 ml aliquots of cold buffer B. Filters were not dried and soaked in Ultima gold (45 μl/well, Packard Instrument Company) and bound radioactivity was counted by a TopCount Microplate Scintillation Counter (Packard Instrument Company).

In assay [2] the target is T2, mouse TAAR1 (Mus musculus, UniProt Q923Y8).
T2 construct: expressed in transfected cells; host or cells: HEK293 (ATCC # CRL-1573), stably transfected with pIRESneo2 expression plasmid
Described as above. The note with it: first value of the cell, read-out: Ki (μM) mouse/rat: mouse. Here is the method:
as §1, §2, §3, §4

T1 sequence (Q923Y9 whole entry): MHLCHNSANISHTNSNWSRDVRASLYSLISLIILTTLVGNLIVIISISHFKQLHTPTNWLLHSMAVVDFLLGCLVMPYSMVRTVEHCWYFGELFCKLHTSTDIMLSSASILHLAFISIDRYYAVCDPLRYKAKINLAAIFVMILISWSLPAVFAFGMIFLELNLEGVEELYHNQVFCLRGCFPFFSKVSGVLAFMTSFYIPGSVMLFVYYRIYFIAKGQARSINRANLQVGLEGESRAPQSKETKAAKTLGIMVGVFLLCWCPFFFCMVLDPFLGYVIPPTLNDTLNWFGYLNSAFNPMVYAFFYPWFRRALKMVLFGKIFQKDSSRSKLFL
T2 sequence (Q923Y8 whole entry): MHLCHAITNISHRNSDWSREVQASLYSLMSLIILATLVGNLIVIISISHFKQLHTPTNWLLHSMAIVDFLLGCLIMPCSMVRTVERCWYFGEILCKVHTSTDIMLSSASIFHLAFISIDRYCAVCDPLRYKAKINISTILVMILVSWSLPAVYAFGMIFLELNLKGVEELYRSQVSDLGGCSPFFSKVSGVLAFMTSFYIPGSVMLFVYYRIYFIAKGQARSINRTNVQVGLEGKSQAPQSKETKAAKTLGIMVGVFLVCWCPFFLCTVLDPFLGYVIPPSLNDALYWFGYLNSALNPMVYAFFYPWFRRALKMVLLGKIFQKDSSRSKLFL

In the case of `CC(C(=O)Nc1ccc(CC[C@H]2COC(N)=N2)cc1)c1cccc(C(F)(F)F)c1` (stereo partly drawn) [Example 81, N-{4-[2-((S)-2-Amino-4,5-dihydro-oxazol-4-yl)-ethyl]-phenyl}-2-(3-trifluoromethyl-phenyl)-propionamide], the values for the Ki in assay [1] and in assay [2] were 0.0022 µM and 0.001 µM, respectively.
Regarding `CC(C(=O)Nc1ccc(CC[C@H]2COC(N)=N2)cc1)c1cccc(OC(F)(F)F)c1` (stereo partly drawn) [Example 82, N-{4-[2-((S)-2-Amino-4,5-dihydro-oxazol-4-yl)-ethyl]-phenyl}-2-(3-trifluoromethoxy-phenyl)-propionamide], the Ki in assay [1] turned out to be 0.0017 µM; in assay [2], 0.0005 µM.
With `COc1ncc(C(=O)Nc2ccc(CC[C@H]3COC(N)=N3)cc2)cn1` [Example 83, 2-Methoxy-pyrimidine-5-carboxylic acid {4-[2-((S)-2-amino-4,5-dihydro-oxazol-4-yl)-ethyl]-phenyl}-amide], the Ki in assay [1] was 0.0052 µM; in assay [2], 0.0074 µM.
In the case of `NC1=N[C@@H](CCc2ccc(NC(=O)c3ccc(-n4cccn4)nc3)cc2)CO1` [Example 85, N-{4-[2-((S)-2-Amino-4,5-dihydro-oxazol-4-yl)-ethyl]-phenyl}-6-pyrazol-1-yl-nicotinamide], the Ki in assay [1] was found to be 0.0015 µM; in assay [2] it was 0.0012 µM.
Taken in the same sequence, the figures for `NC1=N[C@@H](CCc2ccc(NC(=O)c3nc4ccccc4[nH]3)cc2)CO1` [Example 86, 1H-Benzoimidazole-2-carboxylic acid {4-[2-((S)-2-amino-4,5-dihydro-oxazol-4-yl)-ethyl]-phenyl}-amide] were 0.0006 µM and 0.0022 µM.
In the case of `NC1=N[C@@H](CCc2ccc(NC(=O)c3ncc(F)cc3F)cc2)CO1` [Example 87, 3,5-Difluoro-pyridine-2-carboxylic acid {4-[2-((S)-2-amino-4,5-dihydro-oxazol-4-yl)-ethyl]-phenyl}-amide], the Ki was 0.0018 µM in assay [1] and 0.0057 µM in assay [2].
Taken in the same sequence, the figures for `NC1=N[C@@H](CCc2ccc(NC(=O)c3cccc(F)n3)cc2)CO1` [Example 88, 6-Fluoro-pyridine-2-carboxylic acid {4-[2-((S)-2-amino-4,5-dihydro-oxazol-4-yl)-ethyl]-phenyl}-amide] were 0.0014 µM and 0.0097 µM.
As for `NC1=N[C@@H](CCc2ccc(NC(=O)c3nc(Cl)ccc3F)cc2)CO1` [Example 89, 6-Chloro-3-fluoro-pyridine-2-carboxylic acid {4-[2-((S)-2-amino-4,5-dihydro-oxazol-4-yl)-ethyl]-phenyl}-amide], the Ki came to 0.0007 µM in assay [1] and 0.0044 µM in assay [2].
Consider `NC1=N[C@@H](CCc2ccc(NC(=O)c3cc(Cl)ccn3)cc2)CO1` [Example 90, 4-Chloro-pyridine-2-carboxylic acid {4-[2-((S)-2-amino-4,5-dihydro-oxazol-4-yl)-ethyl]-phenyl}-amide], for which the Ki in assay [1] was 0.0003 µM; in assay [2] it was 0.0007 µM.
Taken in the same sequence, the figures for `NC1=N[C@@H](CCc2ccc(NC(=O)c3ccc4ccccc4n3)cc2)CO1` [Example 91, Quinoline-2-carboxylic acid {4-[2-((S)-2-amino-4,5-dihydro-oxazol-4-yl)-ethyl]-phenyl}-amide] were 0.0002 µM and 0.0005 µM.
Taken in the same sequence, the figures for `NC1=N[C@@H](CCc2ccc(NC(=O)c3ccc(Br)cn3)cc2)CO1` [Example 92, 5-Bromo-pyridine-2-carboxylic acid {4-[2-((S)-2-amino-4,5-dihydro-oxazol-4-yl)-ethyl]-phenyl}-amide] were 0.0004 µM and 0.0002 µM.
With `NC1=N[C@@H](CCc2ccc(NC(=O)c3nccc4ccccc34)cc2)CO1` [Example 93, Isoquinoline-1-carboxylic acid {4-[2-((S)-2-amino-4,5-dihydro-oxazol-4-yl)-ethyl]-phenyl}-amide], the values for the Ki in assay [1] and in assay [2] were 0.0003 µM and 0.0016 µM, respectively.
Regarding `NC1=N[C@@H](CCc2ccc(NC(=O)Nc3ccc(F)cc3)cc2)CO1` [Example 94, 1-{4-[2-((S)-2-Amino-4,5-dihydro-oxazol-4-yl)-ethyl]-phenyl}-3-(4-fluoro-phenyl)-urea], the Ki in assay [1] and in assay [2] was 0.0003 µM throughout.

For the origin of these results see patent US8354441B2, “Oxazoline derivatives” (Hoffmann-La Roche Inc., priority 2009, dated 2013).
